Assay results reported in ChEMBL document CHEMBL3425467, “Synthesis, cytotoxicity and haemolytic activity of Pulsatilla saponin A, D derivatives” (Bioorg Med Chem Lett, 2015).

Assays:
[1] = Hemolytic activity in rabbit RBC assessed as induction of hemolysis; assay type: cell-based, Oryctolagus cuniculus, Erythrocyte; conditions: red blood cells, read-out: HD50 (the source's name)
SMMC-7721 = assay: Cytotoxicity against human SMMC7721 cells assessed as inhibition of cell growth after 24 hrs by MTT assay; assay type: functional, cell-based; conditions: SMMC-7721, 24 h
[2] = Cytotoxicity against human Bel7402 cells assessed as inhibition of cell growth after 24 hrs by MTT assay; assay type: functional, cell-based; conditions: Bel-7402, 24 h
[3] = Ratio of hemolytic HD50 for PSD to hemolytic HD50 for compound in rabbit RBC; assay type: ADME, cell-based, Oryctolagus cuniculus; conditions: erythrocyte
[4] = Cytotoxicity against human HL7702 cells assessed as inhibition of cell growth after 24 hrs by MTT assay; assay type: cell-based; conditions: L02, 24 h
A549 = assay: Cytotoxicity against human A549 cells assessed as inhibition of cell growth after 24 hrs by MTT assay; assay type: functional, cell-based; conditions: A549, 24 h
Mus musculus [5] = assay: Toxicity in mouse assessed as death time at 0.1 mL/10 g, iv; assay type: organism-based; conditions: in vivo
[6] = Toxicity in iv dosed mouse assessed as tolerance dose; assay type: organism-based; conditions: in vivo
Mus musculus [7] = assay: Toxicity in mouse assessed as induction of hematuria at 0.1 mL/10 g, iv; assay type: organism-based; conditions: in vivo
Mus musculus [8] = assay: Toxicity in mouse assessed as induction of induction of death at 0.1 mL/10 g, iv; assay type: organism-based; conditions: in vivo
[9] = Induction of hemolysis in erythrocytes (unknown origin); assay type: cell-based, Erythrocyte; conditions: read-out: HD50 (the source's name)

Row | Compound | HC50 [1] | IC50 (SMMC-7721) | IC50 [2] | Ratio [3] | IC50 [4] | IC50 (A549) | Time (Mus musculus [5]) | MTD [6] | Activity (Mus musculus [7]) | Activity (Mus musculus [8]) | HC50 [9]
1 | C[C@@H]1O[C@@H](O[C@H]2[C@H](O[C@H]3CC[C@@]4(C)[C@@H](CC[C@]5(C)[C@@H]4CC=C4[C@@H]6CC(C)(C)CC[C@]6(C(=O)N6CCC[C@H]6C(=O)O)CC[C@]45C)[C@]3(C)CO)OC[C@H](O[C@@H]3O[C@H](CO)[C@@H](O)[C@H](O)[C@H]3O)[C@@H]2O)[C@H](O)[C@H](O)[C@H]1O | 326 µM | 46.8 µM | 97.8 µM | 20 | > 100 µM | 71.1 µM | – | – | – | – | –
2 | C[C@@H]1O[C@@H](O[C@H]2[C@H](O[C@H]3CC[C@@]4(C)[C@@H](CC[C@]5(C)[C@@H]4CC=C4[C@@H]6CC(C)(C)CC[C@]6(C(=O)N[C@H](CO)C(=O)O)CC[C@]45C)[C@]3(C)CO)OC[C@H](O[C@@H]3O[C@H](CO)[C@@H](O)[C@H](O)[C@H]3O)[C@@H]2O)[C@H](O)[C@H](O)[C@H]1O | 60.3 µM | > 100 µM | 93.1 µM | 20 | > 100 µM | 72.3 µM | – | – | – | – | –
3 | C[C@@H]1O[C@@H](O[C@H]2[C@H](O[C@H]3CC[C@@]4(C)[C@@H](CC[C@]5(C)[C@@H]4CC=C4[C@@H]6CC(C)(C)CC[C@]6(C(=O)N6CCN(CCC(=O)O)CC6)CC[C@]45C)[C@]3(C)CO)OC[C@H](O[C@@H]3O[C@H](CO)[C@@H](O)[C@H](O)[C@H]3O)[C@@H]2O)[C@H](O)[C@H](O)[C@H]1O | 119 µM | 14.5 µM | 9.8 µM | 20 | 1.3 µM | 1.9 µM | – | – | – | – | –
4 | C[C@@H]1O[C@@H](O[C@H]2[C@H](O[C@H]3CC[C@@]4(C)[C@@H](CC[C@]5(C)[C@@H]4CC=C4[C@@H]6CC(C)(C)CC[C@]6(C(=O)NCC(=O)[O-])CC[C@]45C)[C@]3(C)CO)OC[C@H](O[C@@H]3O[C@H](CO)[C@@H](O)[C@H](O)[C@H]3O)[C@@H]2O)[C@H](O)[C@H](O)[C@H]1O.[Na+] | – | – | – | – | – | – | > 14 days | > 160 mg/kg | Non-toxic | Non-toxic | –
5 | C[C@@H]1O[C@@H](O[C@H]2[C@H](O[C@H]3CC[C@@]4(C)[C@@H](CC[C@]5(C)[C@@H]4CC=C4[C@@H]6CC(C)(C)CC[C@]6(C(=O)[O-])CC[C@]45C)[C@]3(C)CO)OC[C@H](O[C@@H]3O[C@H](CO)[C@@H](O)[C@H](O)[C@H]3O)[C@@H]2O)[C@H](O)[C@H](O)[C@H]1O.[Na+] | – | – | – | – | – | – | < 0.0417 days | 10 mg/kg | Toxic | Toxic | –
6 | C[C@@H]1O[C@@H](O[C@H]2[C@H](O[C@H]3CC[C@@]4(C)[C@@H](CC[C@]5(C)[C@@H]4CC=C4[C@@H]6CC(C)(C)CC[C@]6(C(=O)NCC(=O)O)CC[C@]45C)[C@]3(C)CO)OC[C@H](O[C@@H]3O[C@H](CO)[C@@H](O)[C@H](O)[C@H]3O)[C@@H]2O)[C@H](O)[C@H](O)[C@H]1O | 160 µM | 1.6 µM | 4.3 µM | 20 | 1.5 µM | 5.7 µM | – | – | – | – | –
7 | C[C@@H]1O[C@@H](O[C@H]2[C@H](O[C@H]3CC[C@@]4(C)[C@@H](CC[C@]5(C)[C@@H]4CC=C4[C@@H]6CC(C)(C)CC[C@]6(C(=O)O)CC[C@]45C)[C@]3(C)CO)OC[C@H](O[C@@H]3O[C@H](CO)[C@@H](O)[C@H](O)[C@H]3O)[C@@H]2O)[C@H](O)[C@H](O)[C@H]1O [HEDERACOLCHISIDE A] | 6.3 µM | 7.6 µM | 8.9 µM | – | 12.6 µM | 6.3 µM | – | – | – | – | 22 µM
8 | C[C@@H]1O[C@@H](O[C@H]2[C@H](O[C@H]3CC[C@@]4(C)[C@@H](CC[C@]5(C)[C@@H]4CC=C4[C@@H]6CC(C)(C)CC[C@]6(C(=O)[O-])CC[C@]45C)[C@]3(C)CO)OC[C@H](O)[C@@H]2O)[C@H](O)[C@H](O)[C@H]1O.[Na+] | – | – | – | – | – | – | < 0.0417 days | 10 mg/kg | Toxic | Toxic | –
9 | C[C@@H]1O[C@@H](O[C@H]2[C@H](O[C@H]3CC[C@@]4(C)[C@@H](CC[C@]5(C)[C@@H]4CC=C4[C@@H]6CC(C)(C)CC[C@]6(C(=O)O)CC[C@]45C)[C@]3(C)CO)OC[C@H](O)[C@@H]2O)[C@H](O)[C@H](O)[C@H]1O [ALPHA-HEDERIN] | 7.5 µM | 10.8 µM | 13.2 µM | – | 11.5 µM | 15.3 µM | – | – | – | – | 10 µM
10 | C[C@@H]1O[C@@H](O[C@H]2[C@H](O[C@H]3CC[C@@]4(C)[C@@H](CC[C@]5(C)[C@@H]4CC=C4[C@@H]6CC(C)(C)CC[C@]6(C(=O)NCC(=O)[O-])CC[C@]45C)[C@]3(C)CO)OC[C@H](O)[C@@H]2O)[C@H](O)[C@H](O)[C@H]1O.[Na+] | – | – | – | – | – | – | > 14 days | > 160 mg/kg | Non-toxic | Non-toxic | –
